Experimental data reported in patent US9783503B2, “Crystalline forms of an estrogen receptor modulator” (Genentech, Inc., priority 2014, dated 2017).
Entries after “also recorded” stand apart in the source; their conditions may differ. Where a name gives a salt, the structure may show the parent alone.

How the values were obtained:
[1] = Thermodynamic aqueous solubility; details: for solubility at 24 h: water, 25 °C, thermodynamic from solid
Method: The suspension was equilibrated at 25° C. for 24 hours then the pH was measured. The suspension was then filtered through a glass fibre C filter. […] Different volumes of the standard, diluted and undiluted sample solutions were injected.
Analysis was performed on an Agilent HP1100 series system equipped with a diode array detector and using ChemStation software vB.02.01-SR1.

[2] = Static storage stability at elevated humidity, checked by XRPD; assay type: physicochemical
Description: X-Ray powder diffraction patterns were collected on a Bruker AXS C2 GADDS or a Bruker AXS D8 Advance diffractometer.

[3] = Gravimetric Vapor Sorption (GVS); assay type: physicochemical
Method: Sorption isotherms were obtained using a SMS DVS Intrinsic moisture sorption analyzer, controlled by DVS Intrinsic Control software v1.0.0.30. The sample temperature was maintained at 25° C. by the instrument controls. The humidity was controlled by mixing streams of dry and wet nitrogen, with a total flow rate of 200 mL/min. The relative humidity was measured by a calibrated Rotronic probe (dynamic range of 1.0-100% RH), located near the sample. The weight change, (mass relaxation) of the sample as a function of % RH was constantly monitored by the microbalance (accuracy+0.005 mg).
Typically 5-20 mg of sample was placed in a tared mesh stainless steel basket under ambient conditions. The sample was loaded and unloaded at 40% RH and 25° C. (typical room conditions). A moisture sorption isotherm was performed as outlined below (2 scans giving 1 complete cycle). The standard isotherm was performed at 25° C. at 10% RH intervals over a 0-90% RH range. Data analysis was undertaken in Microsoft Excel using DVS Analysis Suite v6.0.0.7.
The sample was recovered after completion of the isotherm and re-analyzed by XRPD.

[4] = system: xenograft models of ER+ breast cancer; assay: Tamoxifen-sensitive and tamoxifen-resistant xenograft models of ER+ breast cancer; assay type: in vivo
breast tumor cell = assay: Breast tumor cell proliferation; assay type: cell-based
Oral bioavailability = details: in vivo

SMILES: CC/C(=C(/c1ccc(/C=C/C(=O)O)cc1)c1ccc2[nH]ncc2c1)c1ccc(F)cc1Cl [N-Methylglucamine, (2S,3R,4R,5R)-2,3,4,5,6-pentahydroxy-N-methylhexan-1-aminium (E)-3-(4-((E)-2-(2-chloro-4-fluorophenyl)-1-(1H-indazol-5-yl)but-1-enyl)phenyl)acrylate]
- solubility at 24 h ([1]; Solubility, aqueous, crystalline salt prepared from MeCN (300 Vols)): 10.6 mg/mL

SMILES: CC/C(=C(/c1ccc(/C=C/C(=O)O)cc1)c1ccc2[nH]ncc2c1)c1ccc(F)cc1Cl [Form 1, (E)-3-(4-((E)-2-(2-chloro-4-fluorophenyl)-1-(1H-indazol-5-yl)but-1-en-1-yl)phenyl)acrylic acid, N-methyl glucamine salt]
- change of XRPD pattern after storage ([2]; 25° C. and 96% RH for 7 days): no visible change; also recorded: No difference in the XRPD patterns
- change of XRPD pattern after storage ([2]; 40° C. and 75% RH for 7 days): no visible change; also recorded: no difference in the XRPD patterns
- change by XRPD upon extended storage ([2]; extended storage in high humidity conditions at 40° C.): no visible change
- pH of saturated aqueous solution ([1]; saturated aqueous solution, 25° C., 24 hours): about 5.45
- solubility at 24 h ([1]; pH 5.45, water, aqueous solubility, saturated aqueous solution, equilibrated at 25° C. for 24 hours): 15.8 mg/mL
- hysteresis of sorption isotherm ([3]; 0-90% RH, 25° C.): no hysteresis
- change of XRPD pattern after GVS analysis ([3]; after completion of the isotherm): No change in the XRPD pattern
- mass uptake ([3]; between 0-90% RH, 25° C.): ca. 4.75%

SMILES: C[C@]12CC[C@@H]3c4ccc(O)cc4C[C@@H](CCCCCCCCC[S+]([O-])CCCC(F)(F)C(F)(F)F)[C@H]3[C@@H]1CC[C@@H]2O (stereo partly shown) [fulvestrant, reference compound]
- efficacy compared with the free acid ([4]; in some of these models): less efficacious

SMILES: CC/C(=C(/c1ccc(/C=C/C(=O)O)cc1)c1ccc2[nH]ncc2c1)c1ccc(F)cc1Cl [Pattern 2, (E)-3-(4-((E)-2-(2-chloro-4-fluorophenyl)-1-(1H-indazol-5-yl)but-1-en-1-yl)phenyl)acrylic acid, N-methyl glucamine salt]
- change of XRPD pattern after storage ([2]; 40° C. and 75% RH for 7 days): converted to Form 1

SMILES: CC/C(=C(/c1ccc(/C=C/C(=O)O)cc1)c1ccc2[nH]ncc2c1)c1ccc(F)cc1Cl [(E)-3-(4-((E)-2-(2-Chloro-4-fluorophenyl)-1-(1H-indazol-5-yl)but-1-en-1-yl)phenyl)acrylic acid]
- breast tumor cell proliferation (breast tumor cell): inhibition of breast tumor cell proliferation
- anti-tumor activity ([4]; both tamoxifen-sensitive and tamoxifen-resistant xenograft models): dose dependent anti-tumor activity
- ER-α tumor levels ([4]; tamoxifen-resistant xenograft models): reduction of ER-α tumor levels
- Efficacious doses ([4]; xenograft models of ER+ breast cancer): 1 to 100 mg/kg/day
- oral bioavailability (Oral bioavailability): good oral bioavailability
